Reference: patent US20230338328A1, “KOJIC ACID DERIVATIVE AS SELECTIVE INHIBITOR OF MITOSIS IN COLORECTAL AND GLIOBLASTOMA CANCER CELLS” (UNIVERSITA' DEGLI STUDI DI CAGLIARI, priority 2020, published 2023)
“Also recorded” adds a separate entry of the source.

Key:
[1] = system: Caco2 (colon adenocarcinoma) cells; test: Mitosis block / morphology of treated cell cultures, CaCo2; settings: for antiproliferative activity (through the inhibition of mitosis): CaCo2 tumor cells; for morphological changes characteristic of block in mitosis (M phase arrest): CaCo2, 24 hours of culture, FIG. 1: L1 0.74 mM, Colcemid 5.41 mM
Source text: (§1) The commercial embryonic cell line of the human kidney 293T (Banca Biologica and Cell Factory—IRCCS AOU San Martino—IST Genova, catalog code ICLC HTL03003), that of murine macrophages J774 and RAW (ICLC ATL98011 and ATL02001), that of Glioblastoma del human brain T98G (ATCC® CRL-1690™) and that of human epithelial adenocarcinoma Caco-2 (ICL HTL97023), were provided by the National Institute for Research on Cancer c/o CBA (ICLC, Genoa). A minimal essential cell culture medium, MEM (EBSS), with 10% fetal bovine serum (FBS), 100 units per mL penicillin, […] streptomycin, 2 mM glutamine and 1% not essential amino acids was used. To reach the experimental conditions, the confluent cells were isolated using trypsin/EDTA. The cells of the different cell lines (2-3×10^4 cells per cm^2) were seeded in 35 mm cell discs and then incubated at 37° C. in 5% CO2. After 24 hours of growth in complete culture medium, the cells were cultured according to the different experimental conditions foreseen by the project.

[2] = system: T98G (human glioblastoma) cells; test: Mitosis block / morphology of treated cell cultures, T98G; assay type: cell-based; settings: for antiproliferative activity (through the inhibition of mitosis): T98G tumor cells; for morphological changes characteristic of block in mitosis (M phase arrest): T98G, 24 hours of culture, FIG. 1: L1 0.74 mM, Colcemid 5.41 mM
Source text: as §1

RAW macrophages = test: Mitosis block / morphology of treated cell cultures, RAW; assay type: cell-based, murine; settings: RAW normal cells; FIG. 1: L1 0.74 mM, Colcemid 5.41 mM
Source text: as §1

[3] = system: embryonic kidney cells (293T cells); test: Mitosis block / morphology of treated cell cultures, 293T; assay type: cell-based, human; settings: for morphological changes characteristic of block in mitosis (M phase arrest): 293T normal cells, FIG. 1: L1 0.74 mM, Colcemid 5.41 mM
Source text: as §1

[4] = system: Caco-2 human epithelial adenocarcinoma cells
Protocol: Treated and untreated control samples of Caco-2 human epithelial adenocarcinoma cells were fixed for 2 hours in 1% paraformaldehyde (para) and 1.25% glutaraldehyde solution in 0.1 M, pH 7.4 sodium cacodylate buffer. After rinsing in the same buffer, the samples were post-fixed in 1% osmium tetroxide for 1 hour and stained in 0.25% uranyl acetate overnight at 4° C.
The cell cultures were dehydrated in increasing scale of ethanol and xylene, subsequently, to proceed with the embedding in Embed 812 resin, the samples were transferred in inclusion flat molds in an oven at 60° C. for the 24 hours necessary for the polymerization of the resin. From the resulting blocks, 1 μm thick sections were obtained and then stained with toluidine blue for preliminary analysis by light microscopy. Finally, thin sections of 60-90 nm (ultramicrotome 8800 LKB), contrasted with […] and bismuth subnitrate, were observed and photographed with a transmission electron microscope (model JEOL 1400 plus, Tokyo, Japan) operating at 80 kV.

macrophages (J774 cells) = system: macrophages (J774 cells)
Source text: as §1

CaCo2 cells = system: CaCo2 cells
Protocol: A possible cytotoxic effect (ID50) of the L1 molecule was evaluated in CaCo2 cells by viable staining with trypan blue under different experimental conditions. Cell number (FIG. 3) and viability (FIG. 4) were assessed using the LunaFL cell counter (www.logosbio.com) or by direct observation under the light microscope. Briefly, the cell samples mixed and diluted 1:1 with a 0.2% Trypan Blue solution were counted, after 1-3 minutes, in the counting chamber slide present in the analyzer of the Luna automatic system. […] To obtain an accurate measurement of cell viability, the cell count was repeated at least three times in at least three experiments under the same experimental conditions. The observation under the optical microscope (FIG. 5) was made by adding the Trypan Blue solution to the cells to be observed for a few minutes. The percentage of live cells (trypan blue negative) compared to dead ones (trypan blue positive) in each experimental culture condition was then calculated.

[5] = system: BAX, BCL2, OH-1, PRDX gene expression in CaCo2 cells; settings: 24 hours, L1 0.74 mM (FIG. 6)
Protocol: (§2) Coding for a protein that may play a role in the control of cell proliferation and in tumor development and progression.
(§3) The cells, after treatment, were immediately frozen and stored at −80° C. until RNA extraction. The RNA was extracted with the NorDiag ARROW RNA Kit using the company's automated tool. Actin was used as a reference gene. Real-time reverse transcriptase PCR was performed using the Roche Light Cycler System and the SYBR Green I Amplification Kit (Roche Diagnostics). The primers used for the beta actin control gene are as follows: b-actF=5′-[…]-3′, b-actR=5′-[…]-3′, e (Gen-Bank n. NM_001101). While the following oligo nucleotides were used for the genes under consideration:
(§4) The final reaction volume of 20 μl contained: a final concentration of 3 mM MgCl2, […] of each primer and 2 μl of RNA extract. The real time reaction program includes: an initial reverse transcription at 55° C. for 10 minutes, a denaturation cycle at 95° C. for 30 seconds followed by 35 cycles at 95° for 5 seconds, 53° C. for 10 seconds and 72° C. for 12 seconds, the fluorescence reading was performed in the 72° C. phase
(§5) The relative gene expression was analyzed using the 2-AACT method [KJ Livak and TD Schmittgen, Analysis of relative gene expression data by Quantitative real-time PCR and 2-AACT method, methods, 2001, 25, 402-408]. Three distinct experimental replicates were performed for each analysis and the quantitative data were expressed as mean. The experiment was repeated if the dispersion of the values of the threshold cycles, compared to the mean, was too high. A standard deviation for each replicate equal to ±1 cut-off cycle was accepted.

[6] = system: BAX, BCL2, OH-1, PRDX gene expression in 293T cells; settings: 24 hours, L1 0.74 mM (FIG. 6)
Protocol: as §2, §3, §4, §5

[7] = Caco2, treatment continued for up to 72 hours

O=c1cc(CNCCCCNCc2cc(=O)c(O)co2)occ1O [L3, 2,2′-[butane-1,4-diylbis (iminomethanediyl)]bis(5-hydroxy-4H-pyran-4-one)]
antiproliferative activity (through the inhibition of mitosis) [1]: not those (L2, L3 and L4) showed antiproliferative activity | antiproliferative activity (through the inhibition of mitosis) [2]: not those (L2, L3 and L4) showed antiproliferative activity

CN[C@H]1CCc2cc(OC)c(OC)c(OC)c2-c2ccc(OC)c(=O)cc21 [Colcemid, desacetylmethylcolchicine, reference compound]
morphological changes characteristic of block in mitosis (M phase arrest) [1]: all cell lines respond | morphological changes characteristic of block in mitosis (M phase arrest) ([1]; listed as colcemide): all cell lines studied showed the morphological changes characteristic of blocked cells in mitosis | morphological changes characteristic of block in mitosis (M phase arrest) (RAW macrophages): all cell lines respond | morphological changes characteristic of block in mitosis (M phase arrest) [2]: all cell lines respond | morphological changes characteristic of block in mitosis (M phase arrest) ([2]; listed as colcemide): all cell lines studied showed the morphological changes characteristic of blocked cells in mitosis | morphological changes characteristic of block in mitosis (M phase arrest) [3]: all cell lines respond

O=c1cc(CNCCNCc2cc(=O)c(O)co2)occ1O [L1, 2,2′-ethane-1,2-diylbis (iminomethanediyl)This(5-hydroxy-4H-pyran-4-one)]
morphological changes characteristic of block in mitosis (M phase arrest) [1]: showed morphological changes characteristic of mitotic-blocked cells; also recorded: arrest in M phase similar to that induced by Colcemid | antiproliferative activity (through the inhibition of mitosis) [1]: showed antiproliferative activity | concentration at which all the cells have a modified morphology ([1]; Caco2): 2.22 mM | treatment time after which half of the Caco2 cells were blocked in mitosis ([1]; Caco2): 4.5 h | treatment time after which the block of all treated cells was achieved ([1]; Caco2): 24 h | minimum concentration able to induce evident morphological changes ([1]; Caco2, after 24 hours of treatment): 0.069 mM | reduction in the number of cells versus control sample (on average) ([1]; Caco2, control = same cell line cultured without L1): 4 times lower | cell fate on continued treatment [1, 7]: begin to die from apoptosis | reversibility of mitosis inhibition [1, 7]: irreversible | reversibility of mitosis inhibition ([1]; Caco2, treatment stopped after 24 hours, medium replaced): reversible | effect on cell division by ultrastructural analysis (SEM and TEM) ([4]; Caco2, L1 0.74 mM (FIG. 2)): acts specifically on the cell division (mitosis) process | nuclear fragmentation (microscopy) ([4]; Caco-2, L1 0.74 mM (FIG. 2A)): occasionally, cells showing fragmentation of their nuclei have been observed | cellular architecture during the interphase (TEM) ([4]; Caco-2, L1 0.74 mM (FIG. 2B)): does not appear to affect the cellular architecture of most cells | effect in non-tumor cell line (macrophages (J774 cells)): no effect | morphological changes characteristic of block in mitosis (M phase arrest) (RAW macrophages): apparently normal | viability (Trypan Blue, LunaFL) (CaCo2 cells; L1 0.74 mM (FIG. 4)): comparable to that of the respective control | number of cells after repeated treatments (CaCo2 cells; repeated treatments with L1): further reduction in the number of cells | number of cells compared to those not treated (LunaFL count) (CaCo2 cells; treated for 24 hours, L1 0.74 mM (FIG. 3)): clear reduction in the number of CaCo2 cells | antiproliferative activity (through the inhibition of mitosis) [2]: showed antiproliferative activity | morphological changes characteristic of block in mitosis (M phase arrest) [2]: showed morphological changes characteristic of mitotic-blocked cells; also recorded: arrest in M phase similar to that induced by Colcemid | BAX gene expression (mRNA) [5]: significantly reduces the expression | BCL2 gene expression (mRNA) [5]: significantly reduces the expression | OH-1 gene expression (mRNA) [5]: significantly reduces the expression | PRDX gene expression (mRNA) [5]: significantly reduces the expression | BAX gene expression (mRNA) [6]: increased expression | BCL2 gene expression (mRNA) [6]: increased expression | OH-1 gene expression (mRNA) [6]: increased expression | PRDX gene expression (mRNA) [6]: completely inhibiting the expression | morphological changes characteristic of block in mitosis (M phase arrest) [3]: apparently normal | effect in non-tumor cell line ([3]; embryonic kidney cells (293 cells)): no effect

O=c1cc(CNCCCNCc2cc(=O)c(O)co2)occ1O [L2, 2,2′-[propane-1,3-diylbis (iminomethanediyl)]bis(5-hydroxy-4H-pyran-4-one)]
antiproliferative activity (through the inhibition of mitosis) [1]: not those (L2, L3 and L4) showed antiproliferative activity | antiproliferative activity (through the inhibition of mitosis) [2]: not those (L2, L3 and L4) showed antiproliferative activity

O=c1cc(CNCCN(CCNCc2cc(=O)c(O)co2)CCNCc2cc(=O)c(O)co2)occ1O [L4, 6,6′,6″-(((nitrilotris(ethane-2,1-diyl))tris(azanediyl))tris(methylene))tri s(3-hydroxy-4H-pyran-4-one)]
antiproliferative activity (through the inhibition of mitosis) [1]: not those (L2, L3 and L4) showed antiproliferative activity | antiproliferative activity (through the inhibition of mitosis) [2]: not those (L2, L3 and L4) showed antiproliferative activity
